In brackets after ≈: the same amount, converted by molar mass. Where two headings read alike, the source gives them in different places. Values belong to the compound of their own block, whether it stands above or below them.
Key:
[1] = system: VEGF gene expression in THP1 cells; test: VEGF gene expression in THP1 cells (qRT-PCR); format: cell-based, human; details: 2 hours treatment, normalized to GAPDH
Text: This example illustrates the activation of VEGF expression in THP1 cells by several embodiments of the disclosure.
THP1 cells (human acute monocytic leukemia cell line) were used to analyze the stimulation of VEGF gene expression after treatment with relaxin or compounds. The VEGF stimulation in these cultured endometrial cells is a well-established property of relaxin.^19 This effect is most probably responsible for the observed angiogenic and neovascularization properties of relaxin in various settings.^20 400,000 THP1 cells (0.4 mL at 1×10^6 cells/mL) in test media (RPMI-1640 without phenol red, 0.5% FBS, Ix Pen/Strep, 0.05 mM of 2-mercaptoethanol) were seeded in each well on a 24-well plate. After 24 hours incubation at 37° C., 5% CO2, relaxin or compounds were added for 2 hours. […] Quantitative real time RT-PCR for VEGF and GAPDH gene expression was done using a Roche LightCycler 480 (Roche Diagnostics, Indianapolis, Ind.) with the appropriate set of primers and probes spanning different exons. The relative fold change in VEGF mRNA level was calculated by the comparative Ct (2-ΔΔ^Ct) method using GAPDH expression for normalization of RNA. […]

cAMP in THP-1 cells = test: cyclic AMP assay in THP-1 cells; format: cell-based; details: Homo sapiens
Description: This Example illustrates the cyclic AMP assay in THP-1 cells. THP-1 cells were propagated in RPMI-1640 supplemented with 20% FBS, 0.05 mM β-mercaptoethanol, 100 U/mL penicillin and 100 μg/mL streptomycin at 37° C. in 5% CO2. Before assaying for cAMP response, cells were serum starved in RPMI-1640 supplemented with 0.05 mM (3-mercaptoethanol, 100 U/mL penicillin and 100 μg/mL streptomycin at 37° C. in 5% CO2 for 16 hrs. For 384-well format assays, cells were seeded as 30,000 cells/well in 30 μL/well media with a MultiDrop Combi dispenser (Thermo Scientific, Waltham, Mass.). Subsequently, 2 μL/well of 1.6 mM Ro 20-1724 and 160 uM forskolin in PBS+ (DPBS, 1 mM CaCl2, 0.5 mM MgCl2, 0.05% BSA, 0.005% Tween 20) was dispensed using a BioRAPTR FRD dispenser (Beckman Coulter, Brea, Calif.). Immediately after, 0.25 μL/well of compound solutions in DMSO was dispensed with CyBi-well dispenser (CyBio, Jena, Germany). The cells were allowed to be stimulated with compounds for 30 min at 37° C. in 5% CO2, after which, 8 μL/well of each HTRF cAMP HiRange kit (CisBio, Bedford, Mass.) detection reagent was dispensed with a BioRAPTR FRD dispenser. The detection reagents were diluted as such: K-α-cAMP antibody at 1:20 and cAMP-d2 at 1:18 in HTRF lysis buffer (supplied by the assay kit). The plates were incubated for 30 min at room temperature before the signal was read on an Envision plate reader (PerkinElmer, Waltham, Mass.).

RXFP1 = biological target: T1, RXFP1 (Homo sapiens, UniProt Q9HBX9); test: RXFP1 cAMP assay in HEK293-RXFP1 cells (HTRF); format: cell-based
T1 construct: expressed in transfected cells
T1 sequence (Q9HBX9 1-757): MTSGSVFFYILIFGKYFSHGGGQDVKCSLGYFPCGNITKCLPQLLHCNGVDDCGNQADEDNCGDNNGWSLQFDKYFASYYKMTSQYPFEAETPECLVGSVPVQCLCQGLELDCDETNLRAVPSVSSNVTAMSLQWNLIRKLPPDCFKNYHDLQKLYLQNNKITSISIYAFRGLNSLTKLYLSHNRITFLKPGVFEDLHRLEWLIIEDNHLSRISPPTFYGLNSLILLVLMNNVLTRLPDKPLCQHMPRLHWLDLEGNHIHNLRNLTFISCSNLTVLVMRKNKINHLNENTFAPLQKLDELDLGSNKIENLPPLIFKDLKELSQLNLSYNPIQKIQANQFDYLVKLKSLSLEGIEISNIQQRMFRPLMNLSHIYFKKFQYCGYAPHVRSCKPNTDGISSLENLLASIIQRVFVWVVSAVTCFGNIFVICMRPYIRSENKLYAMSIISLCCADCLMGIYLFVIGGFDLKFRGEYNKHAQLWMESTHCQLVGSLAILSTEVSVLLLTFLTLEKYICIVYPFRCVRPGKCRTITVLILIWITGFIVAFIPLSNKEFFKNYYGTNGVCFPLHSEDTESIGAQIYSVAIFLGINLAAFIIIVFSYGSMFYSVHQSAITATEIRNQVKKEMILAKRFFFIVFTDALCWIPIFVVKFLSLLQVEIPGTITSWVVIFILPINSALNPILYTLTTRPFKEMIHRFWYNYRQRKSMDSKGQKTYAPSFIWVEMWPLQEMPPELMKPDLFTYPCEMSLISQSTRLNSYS
Description: The RXFP1 receptor couples to the Gs protein, and activation of the receptor results in stimulation of cAMP production. […] The TR-FRET between the K-α-cAMP and cAMP-d2 is disrupted by cAMP in the cell lysates, thus allowing TR-FRET detection in a homogenous format that is suitable for HTS. […] The primary screen was carried out in 1536-well format, however, because of a more robust signal to background ratio, all subsequent follow-up experiments were carried out in 384-well format.
For the primary screen, HEK293-RXFP1 cells were seeded at 2,000 cells/well in 3 μL/well media with a MultiDrop Combi dispenser (Thermo Scientific, Logan, Utah), and allowed to attach overnight at 37° C., 5% CO2. […] The cells were allowed to be stimulated with the compounds for 30 minutes at 37° C., 5% CO2, after which, 1 μL/well of each HTRF detection reagent was dispensed with a BioRAPTR FRD dispenser. The detection reagents were diluted before addition as follows: K-α-cAMP antibody at 1:20 and cAMP-d2 at 1:18 in HTRF lysis buffer (supplied by the assay kit). The plates were incubated for 30 minute at room temperature, and then the signal was read on a ViewLux plate reader (PerkinElmer, Waltham, Mass.).
The assay was run according to the following protocol:
Max Response indicates what the maximal amount of functional activity induced by the compound is, as a percentage of the maximal receptor activation induced by high concentrations of forskolin.

PBS solubility = format: physicochemical; details: aqueous buffer
RXFP2 = biological target: T2, RXFP2 (Homo sapiens, UniProt Q8WXD0); test: RXFP2 cAMP assay in HEK293-RXFP2 cells; format: cell-based
T2 construct: expressed in transfected cells
T2 sequence (Q8WXD0 whole entry, species assumed): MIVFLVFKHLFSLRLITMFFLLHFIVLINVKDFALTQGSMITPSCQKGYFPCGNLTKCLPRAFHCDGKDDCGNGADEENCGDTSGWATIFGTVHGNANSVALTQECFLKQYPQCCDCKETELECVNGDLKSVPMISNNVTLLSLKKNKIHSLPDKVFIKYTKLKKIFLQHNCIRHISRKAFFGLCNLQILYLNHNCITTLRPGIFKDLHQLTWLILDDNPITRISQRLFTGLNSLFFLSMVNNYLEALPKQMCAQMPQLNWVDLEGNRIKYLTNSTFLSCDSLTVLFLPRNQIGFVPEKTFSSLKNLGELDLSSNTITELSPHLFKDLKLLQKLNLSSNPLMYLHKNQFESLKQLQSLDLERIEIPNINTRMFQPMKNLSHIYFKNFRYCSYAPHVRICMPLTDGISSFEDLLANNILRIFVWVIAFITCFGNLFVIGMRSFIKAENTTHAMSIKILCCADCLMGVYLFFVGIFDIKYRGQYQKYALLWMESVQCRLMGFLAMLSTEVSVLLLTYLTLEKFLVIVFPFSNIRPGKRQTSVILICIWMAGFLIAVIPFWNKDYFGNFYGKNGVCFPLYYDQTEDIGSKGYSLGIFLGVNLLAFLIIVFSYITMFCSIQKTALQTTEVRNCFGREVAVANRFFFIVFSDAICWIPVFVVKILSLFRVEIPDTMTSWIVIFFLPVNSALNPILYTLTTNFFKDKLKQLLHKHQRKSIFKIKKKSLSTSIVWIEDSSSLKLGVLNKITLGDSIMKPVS
Description: HEK293 cells stably transfected with RXFP2, the cognate receptor for another relaxin family peptide, insulin-like 3, (HEK293-RXFP2) was used to test compound specificity towards the RXFP1 receptor. For this assay, cells were seeded at 8,000 cells/well in 30 µL/well of media with a MultiDrop Combi dispenser (Thermo Scientific), and allowed to attach overnight at 37° C., 5% CO2. Next, 2 µL/well of 1.6 mM Ro 20-1724 solution in PBS+(DPBS, 1 mM CaCl2, 0.5 mM MgCl2, 0.05% BSA, 0.005% Tween 20) were dispensed using a BioRAPTR FRD dispenser (Beckman Coulter, Brea, Calif.), followed addition of 0.25 μL/well of compound solution in DMSO with CyBi-well dispenser (CyBio, Jena, Germany). The cells were allowed to be stimulated with the compounds for 30 minutes at 37° C., 5% CO2, after which, 8 μL/well of each HTRF detection reagent (diluted according to assay kit directions in HTRF lysis buffer) was dispensed with a BioRAPTR FRD dispenser. The plates were incubated for 30 minute at 37° C., and then the signal was read on a ViewLux plate reader (PerkinElmer, Waltham, Mass.).

[2] = 0.5 h, THP-1 cells, cAMP HTRF, with Ro 20-1724 and forskolin, 30 min, read-out: EC50
[3] = percentage of the maximal receptor activation induced by high concentrations of forskolin, Tables 1-7, read-out: Max Response
[4] = read-out: RXFP1 AC50 (μM, Max. Resp.): Max. Resp.
[5] = HEK293-RXFP1 cells, cAMP HTRF, with Ro 20-1724, Tables 1-7, read-out: RXFP1 AC50

SMILES: CCOc1ccccc1C(=O)Nc1ccccc1C(=O)Nc1cccc(C(F)(F)F)c1 [Compound 99, 2-Ethoxy-N-(2-((3-(trifluoromethyl)phenyl)carbamoyl)phenyl)benzamide]
Relative VEGF gene expression (control = 1.0) [1]: 1.9
EC50 (cAMP in THP-1 cells; [2]): 471 nM

SMILES: COc1ccccc1C(=O)Nc1ccccc1C(=O)Nc1cccc(SC(F)(F)F)c1 [Compound 158]
EC50 (cAMP in THP-1 cells; [2]): 523 nM

SMILES: COc1ccccc1C(=O)Nc1ccccc1C(=O)Nc1cccc(S(=O)(=O)C(F)(F)F)c1 [Compound 159, 2-Methoxy-N-(2-((3-((trifluoromethyl)sulfonyl)phenyl)carbamoyl)phenyl)benzamide]
EC50 (cAMP in THP-1 cells; [2]): 358 nM

Emax (RXFP1; [3]): 74%
SMILES: O=C(Nc1ccc(F)cc1)c1ccccc1NC(=O)C1CCCCC1 [Example 13]

Emax (RXFP1; [3]): 85%
SMILES: C#Cc1cccc(NC(=O)c2ccccc2NC(=O)C2CCCCC2)c1 [Example 21]

Emax (RXFP1; [3]): 45%
SMILES: O=C(NCc1ccco1)c1ccccc1NC(=O)c1ccccc1NC(=O)C1CCCCC1 [Example 44]

SMILES: CC(=O)Nc1ccccc1C(=O)Nc1cccc(C(F)(F)F)c1 [Example 47]
Emax (RXFP1; read-out: Max Response): 51%

Emax (RXFP1; [3]): 70%
SMILES: O=C(Nc1cccc(C(F)(F)F)c1)c1ccccc1NC(=O)c1ccccc1C(F)(F)F [Example 70]

Emax (RXFP1; [3]): 80%
SMILES: O=C(Nc1ccccc1C(=O)Nc1cccc(C(F)(F)F)c1)c1ccccc1I [Example 86]

SMILES: CCOc1ccccc1C(=O)Nc1ccccc1C(=O)Nc1cccc(C(F)(F)F)c1 [Example 99]
solubility (PBS solubility): 1.7 µM (≈ 0.728 µg/mL)
Emax (RXFP2; 0.5 h, read-out: RXFP2 AC50 (μM, Max. Resp.): Max. Resp.): 47%
AC50 (RXFP2; HEK293-RXFP2 cells, inactive = Maximum response less than 30%, read-out: RXFP2 AC50 (μM, Max. Resp.): AC50): 9.4 µM
AC50 (RXFP1; Table 10, read-out: RXFP1 AC50 (μM, Max. Resp.): AC50): 0.297 µM
Emax (RXFP1; [3]): 94%
Emax (RXFP1; [4]): 95%

Emax (RXFP1; [3]): 31%
SMILES: CCOc1ccccc1C(=O)Nc1ccccc1-c1nc2cc(C(F)(F)F)ccc2[nH]1 [Example 141]

Emax (RXFP1; [3]): 36%
SMILES: CCOc1ccccc1-c1nc2ccccc2c(=O)n1-c1cccc(-c2nnn[nH]2)c1 [Example 143]

SMILES: COc1ccccc1C(=O)Nc1ccccc1C(=O)Nc1cccc(S(=O)(=O)C(F)(F)F)c1 [Example 159]
Emax (RXFP1; read-out: Max Response): 99%
Emax (RXFP1; [4]): 99%

AC50 (RXFP1; [5]): 11.8 µM
Emax (RXFP1; [3]): 72%
SMILES: CCOc1ccccc1C(=O)Nc1ccccc1C(=O)Nc1cncc(I)c1 [Example 165]

AC50 (RXFP1; [5]): 1.49 µM
Emax (RXFP1; [3]): 91%
SMILES: C/C=C\c1cccc(NC(=O)c2ccccc2NC(=O)c2ccccc2OCC)c1 [Example 169]

Emax (RXFP1; [3]): 95%
SMILES: CCSc1ccccc1C(=O)Nc1ccccc1C(=O)Nc1cccc(S(=O)(=O)C(F)(F)F)c1 [Example 176]

SMILES: O=C(Nc1cccc(S(=O)(=O)C(F)(F)F)c1)c1ccccc1NC(=O)c1ccccc1OCC(F)(F)F [Example 177, 2-(2,2,2-Trifluoroethoxy)-N-(2-((3-((trifluoromethyl)sulfonyl)phenyl)carbamoyl)phenyl)benzamide]
EC50 (cAMP in THP-1 cells; THP-1, 0.5 h): 107 nM

SMILES: O=C(Nc1cccc(S(=O)(=O)C(F)(F)F)c1)c1ccccc1NC(=O)c1ccccc1OCC(F)(F)F [Example 177]
Emax (RXFP1; read-out: Max Response): 97%
Emax (RXFP1; [4]): 97%

SMILES: CC(C)Oc1ccccc1C(=O)Nc1ccccc1C(=O)Nc1cccc(S(=O)(=O)C(F)(F)F)c1 [Example 178, 2-Isopropoxy-N-(2-(3-(trifluoromethylsulfonyl)phenylcarbamoyl)phenyl)benzamide]
EC50 (cAMP in THP-1 cells; [2]): 200 nM

SMILES: CCCOc1ccccc1C(=O)Nc1ccccc1C(=O)Nc1cccc(S(=O)(=O)C(F)(F)F)c1 [Example 179, 2-Propoxy-N-(2-((3-((trifluoromethyl)sulfonyl)phenyl)carbamoyl)phenyl)benzamide]
Relative VEGF gene expression (control = 1.0) [1]: 1.5
EC50 (cAMP in THP-1 cells; THP-1, 0.5 h): 105 nM

SMILES: CCCCOc1ccccc1C(=O)Nc1ccccc1C(=O)Nc1cccc(S(=O)(=O)C(F)(F)F)c1 [Example 180, 2-Butoxy-N-(2-((3-((trifluoromethyl)sulfonyl)phenyl)carbamoyl)phenyl)benzamide]
EC50 (cAMP in THP-1 cells; THP-1, 0.5 h): 124 nM

SMILES: CCCCOc1ccccc1C(=O)Nc1ccccc1C(=O)Nc1cccc(S(=O)(=O)C(F)(F)F)c1 [Example 180]
Emax (RXFP1; read-out: Max Response): 98%
Emax (RXFP1; [4]): 98%

Source: patent US10125112B2, “Modulators of the relaxin receptor 1” (The United States of America, as Represented by the …, priority 2012, dated 2018)
